# Legend:
# [1] = tested on: isolated rat hearts subjected to global ischemia; experiment: Isolated working rat heart, global ischemia and reperfusion: glycolysis and glucose oxidation; settings: FIG. 10, FIG. 16, DCA 2 mM, digoxin 3 nM, metoprolol 1 μM
# Experimental: Hearts were trimmed of excess tissue, and the pulmonary artery and the opening to the left atrium were then cannulated. After 15 min of Langendorff perfusion, hearts were switched to the working mode by clamping the aortic inflow line from the Langendorff reservoir and opening the left atrial inflow line. The perfusate was delivered from an oxygenator into the left atrium at a constant preload pressure of 11 mm Hg. […] The afterload was set at a hydrostatic pressure of 80 mm Hg. […] Palmitate was bound to the albumin as described previously ([…]., et al. J Biol. Chem. 267:3825-3831 (1992)). […] For the aerobic model hearts, all tested compounds were introduced into the heart 5 minutes into the working mode following Langendorff Perfusion. […] All tested compounds were introduced into the perfusate five minutes prior to reperfusion. […] Am J Physiol. 270:[…]. Am J Cardiol. 80:3A-10A (1997)). […] In the global ischemia model, the total myocardial ^3H2O and ^14CO2 production were determined at 20 minute intervals for the 60 minute reperfusion period. […] L., et al. Biochemistr. 1923:6503-6062 (1984)).
# [2] = tested on: isolated rat hearts subjected to global ischemia; experiment: Isolated working rat heart, global no flow ischemia and reperfusion: cardiac function and efficiency
# Experimental: (§1) Hearts were trimmed of excess tissue, and the pulmonary artery and the opening to the left atrium were then cannulated. After 15 min of Langendorff perfusion, hearts were switched to the working mode by clamping the aortic inflow line from the Langendorff reservoir and opening the left atrial inflow line. The perfusate was delivered from an oxygenator into the left atrium at a constant preload pressure of 11 mm Hg. […] The afterload was set at a hydrostatic pressure of 80 mm Hg. […] Palmitate was bound to the albumin as described previously ([…]., et al. J Biol. Chem. 267:3825-3831 (1992)). […] For the aerobic model hearts, all tested compounds were introduced into the heart 5 minutes into the working mode following Langendorff Perfusion. Spontaneously beating hearts were used in all perfusions. Heart rate and aortic pressure were measured with a Biopac Systems Inc. blood pressure transducer connected to the aortic outflow line. Cardiac output and aortic flow were measured with Transonic […] ultrasonic flow probes in the preload and afterload lines, respectively. Coronary flow was calculated as the difference between cardiac output and aortic flow. […] Cardiac work was calculated as the product of systolic pressure and cardiac output. Cardiac efficiency was defined as a ratio of cardiac work to MVO2. […] All tested compounds were introduced into the perfusate five minutes prior to reperfusion.
# [3] = tested on: isolated rat hearts; experiment: Isolated working rat heart, aerobic perfusion: glycolysis and glucose oxidation; design: glycolytic rates (glycolysis) / glucose oxidation rates: unit not given here; settings: normal hearts, aerobic; FIG. 2, 4, 6, 8; control 3.430±0.604; DCA 2 mM, digoxin 3 nM, diltiazem 0.8 μM, dobutamine 1 μM, metoprolol 1 μM
# Experimental: (§2) Rat hearts were cannulated for isolated working heart perfusions as described in “An imbalance between glycolysis and glucose oxidation is a possible explanation for the detrimental effects of high levels of fatty acids during aerobic reperfusion of ischemic hearts.”, (J Pharmacol Exp Ther. 264:135 (1993); herein incorporated by reference. In brief, male Sprague-Dawley rats (0.3-0.35 kg) were anesthetized with pentobarbital sodium (60 mg/kg IP) and hearts were quickly excised, the aorta was cannulated and a retrograde perfusion at 37° C. was initiated at a hydrostatic pressure of 60 mm Hg. Hearts were trimmed of excess tissue, and the pulmonary artery and the opening to the left atrium were then cannulated. After 15 min of Langendorff perfusion, hearts were switched to the working mode by clamping the aortic inflow line from the Langendorff reservoir and opening the left atrial inflow line. The perfusate was delivered from an oxygenator into the left atrium at a constant preload pressure of 11 mm Hg. Perfusate was ejected from spontaneously beating hearts into a compliance chamber (containing 1 ml of air) and into the aortic outflow line. The afterload was set at a hydrostatic pressure of 80 mm Hg. All working hearts were perfused with Krebs'-Henseleit solution containing calcium 2.5 mmol/L, glucose 5.5 mmol/L, 3% bovine serum albumin (Fraction V, Boehringer Mannheim), and with 1.2 mmol/L palmitate. Palmitate was bound to the albumin as described previously (Saddik M., et al. J Biol. Chem. 267:3825-3831 (1992)). The perfusate was recirculated, and pH was adjusted to 7.4 by bubbling with a mixture containing 95% O2 and 5% CO2. For the aerobic model hearts, all tested compounds were introduced into the heart 5 minutes into the working mode following Langendorff Perfusion.
# Glycolysis and glucose oxidation were measured simultaneously by perfusing hearts with [5-^3H/U-^14C] glucose (Liu H., et al. Am J Physiol. 270:H72-H80 (1996); Taegtmeyer Het al. Am J Cardiol. 80:3A-10A (1997)). The total myocardial ^3H2O production and ^14CO2 production were determined at 10 minute intervals for the entirety of the aerobic period, 60 minutes for normal hearts and 30 minutes for the global ischemia and low flow demand ischemia models. In the global ischemia model, the total myocardial ^3H2O and ^14CO2 production were determined at 20 minute intervals for the 60 minute reperfusion period. In the low flow demand ischemia model, the total myocardial ^3H2O and ^14CO2 production were determined at 10 minute intervals for the 30 minute reperfusion period. Glucose oxidation rates were determined by quantitative measurement of ^14CO2 production as described previously (Barbour R. L., et al. Biochemistr. 1923:6503-6062 (1984)).
# [4] = tested on: isolated rat hearts; experiment: Isolated working rat heart, aerobic perfusion: cardiac function and efficiency; design: Cardiac Work (CO · PSP): unit not given beside the values
# Experimental: as §2
# Spontaneously beating hearts were used in all perfusions. Heart rate and aortic pressure were measured with a Biopac Systems Inc. blood pressure transducer connected to the aortic outflow line. Cardiac output and aortic flow were measured with Transonic T206 ultrasonic flow probes in the preload and afterload lines, respectively. Coronary flow was calculated as the difference between cardiac output and aortic flow. The O2 contents of the perfusate entering and leaving the heart were measured using YSI™ micro oxygen electrodes placed in the preload and pulmonary arterial lines, respectively. Myocardial O2 consumption (MVO2) was calculated according to the Fick principle, using coronary flow rates and the arteriovenous difference in perfusate O2 concentration. Cardiac work was calculated as the product of systolic pressure and cardiac output. Cardiac efficiency was defined as a ratio of cardiac work to MVO2.
# [5] = tested on: isolated rat hearts subjected to low flow demand ischemia; experiment: Isolated working rat heart, low flow demand ischemia: cardiac function and efficiency; settings: for Aortic Outflow / Cardiac Output / Coronary Flow / HR × PSP / Heart Rate / Peak Systolic Pressure: DCA 2 mM, diltiazem 0.8 μM, metoprolol 1 μM
# Experimental: as §1, with “into initiation of aerobic perfusion.” for “prior to reperfusion.”
# [6] = tested on: isolated rat hearts subjected to low flow demand ischemia; experiment: Isolated working rat heart, low flow demand ischemia: glycolysis and glucose oxidation; settings: FIG. 22, FIG. 28
# [7] = post-ischemic reperfusion, DCA 2 mM, digoxin 3 nM, metoprolol 1 μM
# [8] = aerobically perfused, DCA 2 mM, diltiazem 0.8 μM, digoxin 3 nM, metoprolol 1 μM, dobutamine 1 μM
# [9] = aerobically perfused, DCA 2 mM, diltiazem 0.8 μM, digoxin 3 nM, metoprolol 1 μM, dobutamine 1 μM, listed as digoxin
# [10] = low flow ischemia: aerobic period
# [11] = low flow ischemia: ischemic period
# [12] = aerobically perfused, DCA 2 mM, diltiazem 0.8 μM, digoxin 3 nM, metoprolol 1 μM, dobutamine 1 μM, listed as diltiazem
smiles,measurement,setting,value
"C[C@H]1O[C@@H](O[C@H]2[C@@H](O)C[C@H](O[C@H]3[C@@H](O)C[C@H](O[C@H]4CC[C@@]5(C)[C@H](CC[C@@H]6[C@@H]5C[C@@H](O)[C@]5(C)[C@@H](C7=CC(=O)OC7)CC[C@]65O)C4)O[C@@H]3C)O[C@@H]2C)C[C@H](O)[C@@H]1O [Digoxin, digoxin]","glycolytic rates as compared to control, in words",[1],"neither DCA, digoxin, nor digoxin with DCA altered glycolytic rates"
same,Aortic Outflow,[2]; [7],14 ± 3 mL/min
same,Cardiac Output,[2]; [7],34 ± 3 mL/min
same,Coronary Flow,[2]; [7],20 ± 1 mL/min
same,HR × PSP,[2]; [7],19 ± 2 beats · min^−1 · mmHg · 10^−2
same,Heart Rate,[2]; [7],207 ± 12 beats · min^−1
same,Peak Systolic Pressure,[2]; [7],93 ± 6 mmHg
same,"recovery of cardiac function of previously ischemic hearts compared to control, in words","[2]; reperfusion period, FIG. 11, FIG. 17",significantly improves the recovery
same,"recovery of cardiac work of previously ischemic hearts compared to control, in words","[2]; reperfusion period, FIG. 12, FIG. 18",significantly improve the recovery
same,"recovery of oxygen consumption of previously ischemic hearts, in words","[2]; reperfusion period, FIG. 13, FIG. 19",significantly improve the recovery
same,glycolytic rates (glycolysis),[3],5.651±1.298
same,Aortic Outflow,[4]; [8],31 ± 1 mL/min
same,Cardiac Output,[4]; [8],52 ± 1 mL/min
same,Cardiac Work (CO · PSP),[4]; [8],67 ± 3
same,Coronary Flow,[4]; [8],21 ± 1 mL/min
same,HR × PSP,[4]; [8],32 ± 1 beats · min^−1 · mmHg · 10^−2
same,Heart Rate,[4]; [8],258 ± 11 beats · min^−1
same,O2 Consumption,[4]; [8],37 ± 3 μmolO2 · g dry wt^−1 · min^−1
same,Peak Systolic Pressure,[4]; [8],129 ± 4 mmHg
same,Aortic Outflow,[4]; [9],31 ± 1 mL/min
same,Cardiac Work (CO · PSP),[4]; [9],67±3
same,"effect on functional parameters shown in Table 1 (heart rate, peak systolic pressure, HR×PSP), in words","[4]; normal hearts, aerobic, compared to control (DCA and dobutamine: compared to dobutamine alone)",no significant effect
"COc1ccc([C@@H]2Sc3ccccc3N(CCN(C)C)C(=O)[C@@H]2OC(C)=O)cc1 [Diltiazem, diltiazem]","peak systolic pressure, effect in words","[5]; low flow demand ischemia, Table 1",decreased
same,Aortic Outflow,[5]; [10],22 ± 1 mL/min
same,Cardiac Output,[5]; [10],43 ± 1 mL/min
same,Coronary Flow,[5]; [10],21 ± 1 mL/min
same,HR × PSP,[5]; [10],28 ± 1 beats · min^−1 · mmHg · 10^−2
same,Heart Rate,[5]; [10],215 ± 6 beats · min^−1
same,Peak Systolic Pressure,[5]; [10],131 ± 6 mmHg
same,Aortic Outflow,[5]; [11],11 ± 4 mL/min
same,Cardiac Output,[5]; [11],24 ± 4 mL/min
same,Coronary Flow,[5]; [11],13 ± 1 mL/min
same,HR × PSP,[5]; [11],28 ± 1 beats · min^−1 · mmHg · 10^−2
same,Heart Rate,[5]; [11],215 ± 6 beats · min^−1
same,Peak Systolic Pressure,[5]; [11],131 ± 6 mmHg
same,"cardiac function, in words","[5]; low-flow ischemic period, FIG. 23, FIG. 29","Neither diltiazem, DCA, nor DCA with diltiazem significantly affected"
same,"glycolysis, in words",[6],some attenuation
same,glycolytic rates (glycolysis),[3],0.727±0.160
same,Aortic Outflow,[4]; [8],21 ± 1 mL/min
same,Cardiac Efficiency (CW · O2^−1),[4]; [8],1.63 ± 0.37
same,Cardiac Output,[4]; [8],41 ± 1 mL/min
same,Cardiac Work (CO · PSP),[4]; [8],51 ± 1
same,Coronary Flow,[4]; [8],20 ± 1 mL/min
same,HR × PSP,[4]; [8],25 ± 1 beats · min^−1 · mmHg · 10^−2
same,Heart Rate,[4]; [8],202 ± 3 beats · min^−1
same,O2 Consumption,[4]; [8],38 ± 9 μmolO2 · g dry wt^−1 · min^−1
same,Peak Systolic Pressure,[4]; [8],127 ± 4 mmHg
same,Aortic Outflow,[4]; [12],21 ± 1 mL/min
same,Cardiac Work (CO · PSP),[4]; [12],51±1
same,HR × PSP,[4]; [12],25±1 beats · min^−1 · mmHg · 10^−2
same,Heart Rate,[4]; [12],202±3 beats · min^−1

# — patent US20120064056A1, “DICHLORACETATE IN COMBINATION WITH CLINICALLY HIGH LEVELS OF CARDIOPROTECTIVE OR HEMODYNAMIC DRUGS” (THE GOVERNORS OF THE UNIVERSITY OF ALBERTA TEC Edmonton, priority 2002, published 2012)
